# Measurements taken from ChEMBL document CHEMBL3301361, “Experimental in vitro DMPK and physicochemical data on a set of publicly disclosed compounds”.
# Assay: physchem
# Conditions: pH 7.4 buffer
row,SMILES,solubility thermodynamic [µM]
1,COc1cc2c(Nc3c(Cl)ccc4c3OCO4)ncnc2cc1OCCCN1CCOCC1,70.8
2,C[C@@H]1CN(C(=O)OC(C)(C)C)CCN1c1ncc(OCC2CCN(S(C)(=O)=O)CC2)cn1,5
3,CCN1N=C(c2ccccc2)Cn2c1nc1ccccc12,6.9
4,CC(C)(C)OC(=O)N1CCN(c2ccc(OCc3ccc(S(C)(=O)=O)cc3)cn2)CC1,1
5,O=S(=O)(Nc1ccccn1)c1ccc(C2CCCCC2)cc1,2.8
6,C=CCN(C(=O)NCc1cccc(C)c1)C1CCN(CCC(c2ccccc2)c2ccccc2)CC1,9.1
7,CC1(c2c(C(=O)NC3C4CC5CC(C4)CC3C5)cnn2-c2ccc(C(=O)O)cc2)CC1 (stereo unspecified),661
8,Cc1cccc(-c2ccc3c(c2)c(C(=O)C(=O)O)cn3Cc2ccc(C(C)(C)C)cc2)c1 [ALEPLASININ],363
9,CC(C)(C)CNCCn1c(Sc2nc3cccc(Cl)c3s2)nc2c(N)ncnc21,0.5
10,O=C(O)COc1ccc(OCCNC[C@H](O)COc2ccccc2)cc1,1020
11,CCN(CC)C(=O)C(C)(C)c1ccc2[nH]c(-c3cc(C)cc(C)c3)c(CCNCCCCc3ccncc3)c2c1,141
12,CC(C)(C)[C@@H](C#N)NC(=O)[C@@H]1CCCC[C@H]1C(=O)N1CCc2[nH]c3ccc(F)cc3c2C1,74.1
13,N=C1S/C(=C/c2ccco2)C(=O)N1c1nccs1,182
14,O=C(N1CCC(c2ccncc2)CC1)N1CCN(S(=O)(=O)c2ccc(Cl)cc2)CC1,8.7
15,COc1ccc(CNC(=O)c2ccc(Oc3ccc(C#C[C@]4(O)CN5CCC4CC5)cc3)cc2)nc1,347
16,Nc1ccccc1NC(=O)c1ccc(N2CCN(Cc3ccccc3)CC2)cc1,28.2
17,COc1cc2ncnc(Nc3cccc(Cl)c3F)c2cc1CN1CC[C@H](C(N)=O)C1,77.6
18,O=C(NCc1ccc(C(=O)NO)cc1)OCc1cccnc1,1380
19,Cc1cccc2c3cc(NC(=O)N4CCOCC4)ccc3n(C(C)C)c12,5.1
20,O=C(O)c1c(Cl)c2ccccc2n1Cc1ccc(Cl)c(Cl)c1,759
21,CN(C)C(=O)[C@H](Cc1ccccc1)NC(=O)c1cc2cc(Br)ccc2[nH]1,1
22,O=C(N[C@@H](Cc1ccc(OCCc2cccc(NC3CCCC3)n2)cc1)C(=O)O)c1c(Cl)cccc1Cl,295
23,COc1cc2ncnc(Nc3ccc4c(ccn4Cc4ccccc4)c3)c2cc1OC,0.6
24,CC(C)c1cc(C(=O)N[C@@H](Cc2cccc(Cl)c2)C(=O)NCC#N)n(C)n1,47.9

row,SMILES,solubility thermodynamic [µM]
1,COc1cc2ncnc(Nc3ccc(Br)cc3F)c2cc1OC,6.8
2,c1ccc(CSc2ncnc3[nH]cnc23)cc1,95.5
3,COc1cc2ncnc(Nc3cnn(CC(=O)Nc4cccc(F)c4)c3)c2cc1OC,2
4,c1ccc(-c2cn3cccnc3n2)cc1,676
5,COc1cc2c(Nc3ccc(Br)cc3F)ncnc2cc1OCCCN1CCN(C)CC1,41.7
6,Nc1nnc(-c2ccccc2F)s1,316
7,CCOC(=O)c1cc2ccccc2[nH]1,89.1
8,CC(C)C(NC(=O)c1cnoc1C(C)(C)C)C(=O)c1ccc(C#N)cc1 (stereo unspecified),20
9,CN(C(=O)Cc1ccc(Br)cc1)C1CCN(CCC(c2ccccc2)c2ccccc2)CC1,21.9
10,Clc1ccc(-c2cn3cccnc3n2)cc1,20
11,CCn1cc(NC(=O)Cc2ccc(Oc3ccnc4cc(OC)ccc34)cc2OC)cn1,3.2
12,OC1(C#Cc2ccc(-c3ccccc3)cc2)CN2CCC1CC2 (stereo unspecified),14.8
13,CC(C)Oc1cc(OCCc2ccncc2)cc(C(=O)Nc2ccc(C(=O)O)cn2)c1,1070
14,O=c1cc(-c2ccccc2)[nH]c2c(Cl)cccc12,30.9
15,CC(C)Cn1c2ccccc2c2cc(C(=O)O)ccc21,219
16,CN(C(=O)Cc1ccc(-n2cnnn2)cc1)C1CCN(Cc2nc3c(s2)CCCC3)CC1,9.8
17,COc1cc2ncnc(Nc3ccc(F)c(Cl)c3)c2cc1CN1CCC[C@@H]1C(N)=O,5.1
18,CO[C@@H]1CN(Cc2ccc(C(F)(F)F)cc2)CC[C@@H]1N(C)C(=O)Cc1ccc(-n2cnnn2)cc1,75.9
19,O=C(Cc1ccccc1)Nc1ccccc1O,246
20,COC[C@@H](C(N)=O)N(C)Cc1cc2c(Nc3cccc(Cl)c3F)ncnc2cc1OC,3.8
21,CCn1cc(NC(=O)Cc2ccc(Oc3ccnc4ccc(OC)cc34)cc2OC)cn1,7.1
22,COCCNS(=O)(=O)c1ccc(Nc2nccc(-c3cnc(C)n3C3CCCC3)n2)cc1,53.7
23,COc1cc2ncnc(Nc3cccc(Cl)c3F)c2cc1CN1CCCC[C@@H]1C(N)=O,10
24,O=C(Nc1cccc(O)c1)c1ccc(OCCCN2CCCC2)cc1OCc1ccc(F)cc1,5

row,SMILES,solubility thermodynamic [µM]
1,O=C(NC1CCN(C(=O)c2cccs2)CC1)c1ccccc1,166
2,COc1cc2c(Nc3ccc(Br)cc3F)ncnc2cc1OC/C=C/CN1CCCC1,240
3,COc1cc2c(Nc3cnc(NC(=O)c4ccccc4)nc3)ncnc2cc1OC[C@@H](O)CN1CCCCC1,1510
4,CNC(=O)c1c(-c2ccc(F)cc2)oc2cc(N(CCO)S(C)(=O)=O)c(C3CC3)cc12 [NESBUVIR],60.3
5,COc1cc(N2CCN(C(=O)[C@@H]3CCCC[C@H]3C(=O)NC3(C#N)CC3)[C@H](C)C2)ccc1C1CC1,204
6,COc1ccc2c(Oc3ccc(CC(=O)Nc4cnn(C)c4C)c(OC)c3)ccnc2c1,10.7
7,CC(C)Oc1cc(O[C@H](C)c2ccccc2)cc(C(=O)Nc2ccc(C(=O)O)cn2)c1,112
8,CC1(C)Oc2ncnc(N)c2N=C1c1ccc(C23CC4CC(CC(CC(=O)O)(C4)C2)C3)cc1,79.4
9,Cc1csc(NC(=O)c2ccccc2)n1,331
10,CC(=O)NC1CN(c2ccc(Nc3ncc(F)c(-c4cnc(C)n4C(C)C)n3)cc2)C1,120
11,COc1cc(OC2CCOCC2)c2c(Nc3ccc(F)c(Cl)c3)ncnc2c1,0.1
12,Nc1nccc(/C=C/c2c(Cl)nc3sccn23)n1,324
13,Nc1nccc(/C=C/c2ccccc2)n1,190
14,O=C(c1nnsc1S(=O)(=O)c1ccc(Cl)cc1)N1CCOCC1,17
15,CNC(=O)c1cc(COc2nnc(Nc3ccc(Cl)cc3)c3ccoc23)ccn1 [TELATINIB],0.3
16,COc1cc2ncnc(Nc3ccc(Oc4ccccc4)cc3)c2cc1OC,0.3
17,COC[C@H](C)Oc1cc(Oc2cccc(F)c2)cc(C(=O)Nc2ccc(C(=O)O)cn2)c1,1380
18,CN(C)C(=O)c1nnsc1Sc1ccc(Cl)cc1,31.6
19,Cc1ncc(-c2nc(Nc3ccc(N4CCOCC4)cc3)ncc2F)n1C(C)C,118
20,Cc1ccc(C)c(N(C)c2ccnc(Nc3cc(N4CCOCC4)cc(N4CCOCC4)c3)n2)c1,5.9
21,COc1ccc(Cl)c(Nc2ncnc3cc(OCCN4CCOCC4)cc(OC(C)C)c23)n1,26.9
22,COc1cc2ncnc(Nc3ccc(F)c(Cl)c3)c2cc1OCCCN(C)C,1290
23,COc1cc2ncc(C#N)c(Nc3ccc(Oc4ccccc4)cc3)c2cc1OC,1.4
